Laboratory results as given in US4810818A, “Process for producing alpha-aspartyl-l-phenylalanine methyl ester having an improved solubility” (Toyo Soda Manufacturing Co., Ltd, priority 1986, dated 1989).
Peptide text beside a SMILES is read from it.

Key:
[1] = as compared with the I type crystals; cited from earlier work
[2] = Crystal form conversion (I type to II type) on drying; type: physicochemical; conditions: irrespective of the drying method
[3] = drying at a high temperature; part readily converted to a diketopiperadine derivative; cited from earlier work
[4] = cited from earlier work
[5] = Solubility: duration till 1 g of Aspartame crystals in 500 ml distilled water was completely dissolved as visually observed; type: physicochemical; conditions: 1 g in 500 ml distilled water, 20° C., magnetic stirrer 200 r.p.m.; for Solubility (min) (duration till completely dissolved): Table 1; for Solubility (min.) (duration till completely dissolved): Table 2, dried at 50° C. then 70° C.
Experimental: In the Examples, the solubility of Aspartame crystals was determined by measuring the duration till 1 g of Aspartame crystals which was added to 500 ml of distilled water at 20° C., followed by stirring (by a magnetic stirrer at 200 r.p.m.), was completely dissolved as visually observed.

[6] = Ratio of I type crystals by X-ray diffraction specific peaks with calibration curve; type: physicochemical; conditions: peaks at 2θ 4.4° (I) and 5.0° (II)
Experimental: Then, the ratio of the I type crystals was determined by comparing the strength ratio of each sample with the calibration curve.

[7] = Dispersibility and solubility in water (general statements); type: physicochemical; conditions: as compared with the II type crystals
[8] = Table 2, dried at 50° C. then 70° C.

SMILES	Solubility (min.) (duration till completely dissolved) [5] [min]	Ratio of I type crystals (%) [6, 8] [%]	further results
COC(=O)[C@H](Cc1ccccc1)NC(=O)[C@@H](N)CC(=O)O [Aspartame II type crystals, α-L-aspartyl-L-phenylalanine methyl ester] (H-Asp-Phe-OMe)			hygroscopicity [1]: low hygroscopicity; storage stability [1]: excellent storage stability
COC(=O)[C@H](Cc1ccccc1)NC(=O)[C@@H](N)CC(=O)O [Aspartame, α-L-aspartyl-L-phenylalanine methyl ester] (H-Asp-Phe-OMe)			water content till which the I type crystal form is maintained [2]: about 15 % by weight; stability at a high temperature [3]: not stable at a high temperature; dispersibility and solubility in water [4]: poor dispersibility and solubility in water
COC(=O)[C@H](Cc1ccccc1)NC(=O)[C@@H](N)CC(=O)O [Comparative Example 1, α-L-aspartyl-L-phenylalanine methyl ester] (H-Asp-Phe-OMe)			Solubility (min) (duration till completely dissolved) [5]: 13 to 14 min; Ratio of I type crystals (%) ([6]; Table 1): 25%
COC(=O)[C@H](Cc1ccccc1)NC(=O)[C@@H](N)CC(=O)O [Example 1, α-L-aspartyl-L-phenylalanine methyl ester] (H-Asp-Phe-OMe)			Solubility (min) (duration till completely dissolved) [5]: 5 to 6 min; Ratio of I type crystals (%) ([6]; Table 1): 98%
COC(=O)[C@H](Cc1ccccc1)NC(=O)[C@@H](N)CC(=O)O [Example 2, α-L-aspartyl-L-phenylalanine methyl ester] (H-Asp-Phe-OMe)	5 to 6	90	
COC(=O)[C@H](Cc1ccccc1)NC(=O)[C@@H](N)CC(=O)O [Example 3, α-L-aspartyl-L-phenylalanine methyl ester] (H-Asp-Phe-OMe)	5 to 6	100	
COC(=O)[C@H](Cc1ccccc1)NC(=O)[C@@H](N)CC(=O)O [Example 4, α-L-aspartyl-L-phenylalanine methyl ester] (H-Asp-Phe-OMe)	4 to 5	98	
COC(=O)[C@H](Cc1ccccc1)NC(=O)[C@@H](N)CC(=O)O [Example 5, α-L-aspartyl-L-phenylalanine methyl ester] (H-Asp-Phe-OMe)	4 to 5	100	
COC(=O)[C@H](Cc1ccccc1)NC(=O)[C@@H](N)CC(=O)O [I type crystals, α-L-aspartyl-L-phenylalanine methyl ester] (H-Asp-Phe-OMe)			solubility, I type versus II type crystals [7]: far superior in the solubility to the II type crystals
COC(=O)[C@H](Cc1ccccc1)NC(=O)[C@@H](N)CC(=O)O [compound 2, α-L-aspartyl-L-phenylalanine methyl ester] (H-Asp-Phe-OMe)	13 to 14	60	
COC(=O)[C@H](Cc1ccccc1)NC(=O)[C@@H](N)CC(=O)O [compound 3, α-L-aspartyl-L-phenylalanine methyl ester] (H-Asp-Phe-OMe)	15 to 16	51	
COC(=O)[C@H](Cc1ccccc1)NC(=O)[C@@H](N)CC(=O)O [compound 4, α-L-aspartyl-L-phenylalanine methyl ester] (H-Asp-Phe-OMe)	14 to 15	64	
COC(=O)[C@H](Cc1ccccc1)NC(=O)[C@@H](N)CC(=O)O [compound 5, α-L-aspartyl-L-phenylalanine methyl ester] (H-Asp-Phe-OMe)	7 to 8	78	
